Measured values reported in ChEMBL document CHEMBL1129841, “Peptide based inhibitors of interleukin-8: structural simplification and enhanced potency” (Bioorg Med Chem Lett, 1997).
*1 amine or outer side, *2 acyl side, *3 side chain or, on linkers, in order; H or OH if unused. Where a SMILES comes first, the peptide text is derived from it. [ ]: non-standard residue; d: D form. ξ: configuration not given here. 2(aminomethyl)benzoyl = O=C(c1ccccc1CN[*:1])[*:2]; X1 = C[C@@H](CCCC(=O)[*:2])N[*:1]; X2 = C[C@H](CCCN[*:1])C(=O)[*:2]; ξThr(3R) = C[C@@H](O)C(N)C(=O)O; 12Ado = NCCCCCCCCCCCC(=O)O; 3Amb = NCc1cccc(C(=O)O)c1; 4Amb = NCc1ccc(C(=O)O)cc1; Aun = NCCCCCCCCCCC(=O)O; Aoc = NCCCCCCCC(=O)O; Ahx = NCCCCCC(=O)O; ξP = O=C(O)C1CCCN1; Ava = NCCCCC(=O)O; GABA = NCCCC(=O)O

Biological target: T1, Interleukin-8 (Homo sapiens, UniProt P10145)
T1 sequence (P10145 whole entry): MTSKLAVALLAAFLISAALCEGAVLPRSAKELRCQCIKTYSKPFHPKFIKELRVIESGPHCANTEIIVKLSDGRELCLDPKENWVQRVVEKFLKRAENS
Test: Inhibition of Interleukin-8 (IL-8)

Compound `CSCC[C@H](NC(C)=O)C(=O)N[C@@H](Cc1c[nH]c2ccccc12)C(=O)N[C@@H](CC(=O)O)C(=O)N[C@@H](Cc1ccccc1)C(=O)N[C@@H](CC(=O)O)C(=O)N[C@@H](CC(=O)O)C(=O)N[C@@H](CC(C)C)C(=O)N[C@@H](CC(N)=O)C(=O)N[C@@H](Cc1ccccc1)C(=O)NCc1ccccc1C(=O)N[C@@H](CCSC)C(=O)N1CCC[C@H]1C(=O)N1CCC[C@H]1C(=O)N[C@@H](C)C(=O)N[C@@H](CC(=O)O)C(=O)N[C@@H](CCC(=O)O)C(=O)N[C@@H](CC(=O)O)C(=O)N[C@@H](Cc1ccc(O)cc1)C(=O)N[C@@H](CO)C(=O)N1CCCC1C(N)=O` (some centres undefined) (Ac-MWDFDDLNF[2(aminomethyl)benzoyl]MPPADEDYS[ξP]-NH2) has a Ki of 9.3 µM.
`CSCC[C@H](NC(C)=O)C(=O)N[C@@H](Cc1c[nH]c2ccccc12)C(=O)N[C@@H](CC(=O)O)C(=O)N[C@@H](Cc1ccccc1)C(=O)N[C@@H](CC(=O)O)C(=O)N[C@@H](CC(=O)O)C(=O)N[C@@H](CC(C)C)C(=O)N[C@@H](CC(N)=O)C(=O)N[C@@H](Cc1ccccc1)C(=O)NCc1cccc(C(=O)N[C@@H](CCSC)C(=O)N2CCC[C@H]2C(=O)N2CCC[C@H]2C(=O)N[C@@H](C)C(=O)N[C@@H](CC(=O)O)C(=O)N[C@@H](CCC(=O)O)C(=O)N[C@@H](CC(=O)O)C(=O)N[C@@H](Cc2ccc(O)cc2)C(=O)N[C@@H](CO)C(=O)N2CCC[C@H]2C(N)=O)c1` (Ac-MWDFDDLNF[3Amb]MPPADEDYSP-NH2) showed a Ki of 4 µM.
Compound `CSCC[C@H](NC(C)=O)C(=O)N[C@@H](Cc1c[nH]c2ccccc12)C(=O)N[C@@H](CC(=O)O)C(=O)N[C@@H](Cc1ccccc1)C(=O)N[C@@H](CC(=O)O)C(=O)N[C@@H](CC(=O)O)C(=O)NCCCCCCCCCCC(=O)N[C@@H](CCSC)C(=O)N1CCC[C@H]1C(=O)N1CCC[C@H]1C(=O)N[C@@H](C)C(=O)N[C@@H](CC(=O)O)C(=O)N[C@@H](CCC(=O)O)C(=O)N[C@@H](CC(=O)O)C(=O)N[C@@H](Cc1ccc(O)cc1)C(=O)N[C@@H](CO)C(=O)N1CCC[C@H]1C(N)=O` (Ac-MWDFDD[Aun]MPPADEDYSP-NH2) has a Ki of 6 µM.
`CSCC[C@H](NC(C)=O)C(=O)N[C@@H](Cc1c[nH]c2ccccc12)C(=O)N[C@@H](CC(=O)O)C(=O)N[C@@H](Cc1ccccc1)C(=O)N[C@@H](CC(=O)O)C(=O)N[C@@H](CC(=O)O)C(=O)NCCCCCCCC(=O)N[C@@H](CCSC)C(=O)N1CCC[C@H]1C(=O)N1CCC[C@H]1C(=O)N[C@@H](C)C(=O)N[C@@H](CC(=O)O)C(=O)N[C@@H](CCC(=O)O)C(=O)N[C@@H](CC(=O)O)C(=O)N[C@@H](Cc1ccc(O)cc1)C(=O)N[C@@H](CO)C(=O)N1CCC[C@H]1C(N)=O` (Ac-MWDFDD[Aoc]MPPADEDYSP-NH2) was tested, and the Ki was 12 µM.
Compound `CSCC[C@H](NC(C)=O)C(=O)N[C@@H](Cc1c[nH]c2ccccc12)C(=O)N[C@@H](CC(=O)O)C(=O)N[C@@H](Cc1ccccc1)C(=O)N[C@@H](CC(=O)O)C(=O)N[C@@H](CC(=O)O)C(=O)NCCCC(=O)N[C@@H](CCSC)C(=O)N1CCC[C@H]1C(=O)N1CCC[C@H]1C(=O)N[C@@H](C)C(=O)N[C@@H](CC(=O)O)C(=O)N[C@@H](CCC(=O)O)C(=O)N[C@@H](CC(=O)O)C(=O)N[C@@H](Cc1ccc(O)cc1)C(=O)N[C@@H](CO)C(=O)N1CCC[C@H]1C(N)=O` (Ac-MWDFDD[GABA]MPPADEDYSP-NH2) has a Ki of 14 µM.
With `CSCC[C@H](NC(C)=O)C(=O)N[C@@H](Cc1c[nH]c2ccccc12)C(=O)N[C@@H](CC(=O)O)C(=O)N[C@@H](Cc1ccccc1)C(=O)N[C@@H](CC(=O)O)C(=O)N[C@@H](CC(=O)O)C(=O)N[C@@H](CC(C)C)C(=O)N[C@@H](CC(N)=O)C(=O)N[C@@H](Cc1ccccc1)C(=O)NC(C(=O)NCCCCC(=O)N1CCC[C@H]1C(=O)N1CCC[C@H]1C(=O)N[C@@H](C)C(=O)N[C@@H](CC(=O)O)C(=O)N[C@@H](CCC(=O)O)C(=O)N[C@@H](CC(=O)O)C(=O)N[C@@H](Cc1ccc(O)cc1)C(=O)N[C@@H](CO)C(=O)N1CCC[C@H]1C(N)=O)[C@@H](C)O` (stereo partly drawn) (Ac-MWDFDDLNF[ξThr(3R)][Ava]PPADEDYSP-NH2) the Ki was 106 µM.
For `CSCC[C@H](NC(C)=O)C(=O)N[C@@H](Cc1c[nH]c2ccccc12)C(=O)N[C@@H](CC(=O)O)C(=O)N[C@@H](Cc1ccccc1)C(=O)N[C@@H](CC(=O)O)C(=O)N[C@@H](CC(=O)O)C(=O)NCCCCCCCCCCCC(=O)N[C@@H](CCSC)C(=O)N1CCC[C@H]1C(=O)N1CCC[C@H]1C(=O)N[C@@H](C)C(=O)N[C@@H](CC(=O)O)C(=O)N[C@@H](CCC(=O)O)C(=O)N[C@@H](CC(=O)O)C(=O)N[C@@H](Cc1ccc(O)cc1)C(=O)N[C@@H](CO)C(=O)N1CCC[C@H]1C(N)=O` (Ac-MWDFDD[12Ado]MPPADEDYSP-NH2), the Ki was 4 µM.
`CSCC[C@H](NC(C)=O)C(=O)N[C@@H](Cc1c[nH]c2ccccc12)C(=O)N[C@@H](CC(=O)O)C(=O)N[C@@H](Cc1ccccc1)C(=O)N[C@@H](CC(=O)O)C(=O)N[C@@H](CC(=O)O)C(=O)N[C@@H](CC(C)C)C(=O)N[C@@H](CC(N)=O)C(=O)N[C@@H](Cc1ccccc1)C(=O)NCCCCC(=O)N[C@@H](CCSC)C(=O)N1CCC[C@H]1C(=O)N1CCC[C@H]1C(=O)N[C@@H](C)C(=O)N[C@@H](CC(=O)O)C(=O)N[C@@H](CCC(=O)O)C(=O)N[C@@H](CC(=O)O)C(=O)N[C@@H](Cc1ccc(O)cc1)C(=O)N[C@@H](CO)C(=O)N1CCC[C@H]1C(N)=O` (Ac-MWDFDDLNF[Ava]MPPADEDYSP-NH2) showed a Ki of 13 µM.
Ac-MWDFDDGMPPADEDYSP-NH2 was tested, and the Ki was 31 µM.
For Ac-MWDFDDLNFTGMPPADEDYSP-NH2, the Ki was 13 µM.
For `CSCC[C@H](NC(C)=O)C(=O)N[C@@H](Cc1c[nH]c2ccccc12)C(=O)N[C@@H](CC(=O)O)C(=O)N[C@@H](Cc1ccccc1)C(=O)N[C@@H](CC(=O)O)C(=O)N[C@@H](CC(=O)O)C(=O)N[C@@H](CC(C)C)C(=O)N[C@@H](CC(N)=O)C(=O)N[C@@H](Cc1ccccc1)C(=O)NC(C(=O)NCCC[C@@H](C)C(=O)N1CCC[C@H]1C(=O)N1CCC[C@H]1C(=O)N[C@@H](C)C(=O)N[C@@H](CC(=O)O)C(=O)N[C@@H](CCC(=O)O)C(=O)N[C@@H](CC(=O)O)C(=O)N[C@@H](Cc1ccc(O)cc1)C(=O)N[C@@H](CO)C(=O)N1CCC[C@H]1C(N)=O)[C@@H](C)O` (stereo partly drawn) (Ac-MWDFDDLNF[ξThr(3R)][X2]PPADEDYSP-NH2), the Ki was 383 µM.
In the case of `CSCC[C@H](NC(C)=O)C(=O)N[C@@H](Cc1c[nH]c2ccccc12)C(=O)N[C@@H](CC(=O)O)C(=O)N[C@@H](Cc1ccccc1)C(=O)N[C@@H](CC(=O)O)C(=O)N[C@@H](CC(=O)O)C(=O)N[C@@H](CC(C)C)C(=O)N[C@@H](CC(N)=O)C(=O)N[C@@H](Cc1ccccc1)C(=O)NCc1ccc(C(=O)N[C@@H](CCSC)C(=O)N2CCC[C@H]2C(=O)N2CCC[C@H]2C(=O)N[C@@H](C)C(=O)N[C@@H](CC(=O)O)C(=O)N[C@@H](CCC(=O)O)C(=O)N[C@@H](CC(=O)O)C(=O)N[C@@H](Cc2ccc(O)cc2)C(=O)N[C@@H](CO)C(=O)N2CCC[C@H]2C(N)=O)cc1` (Ac-MWDFDDLNF[4Amb]MPPADEDYSP-NH2), the Ki is reported as 2.3 µM.
Work on `CSCC[C@H](NC(C)=O)C(=O)N[C@@H](Cc1c[nH]c2ccccc12)C(=O)N[C@@H](CC(=O)O)C(=O)N[C@@H](Cc1ccccc1)C(=O)N[C@@H](CC(=O)O)C(=O)N[C@@H](CC(=O)O)C(=O)NCCCCCC(=O)N[C@@H](CCSC)C(=O)N1CCC[C@H]1C(=O)N1CCC[C@H]1C(=O)N[C@@H](C)C(=O)N[C@@H](CC(=O)O)C(=O)N[C@@H](CCC(=O)O)C(=O)N[C@@H](CC(=O)O)C(=O)N[C@@H](Cc1ccc(O)cc1)C(=O)N[C@@H](CO)C(=O)N1CCC[C@H]1C(N)=O` (Ac-MWDFDD[Ahx]MPPADEDYSP-NH2) yielded a Ki of 7 µM.
Work on `CSCC[C@H](NC(C)=O)C(=O)N[C@@H](Cc1c[nH]c2ccccc12)C(=O)N[C@@H](CC(=O)O)C(=O)N[C@@H](Cc1ccccc1)C(=O)N[C@@H](CC(=O)O)C(=O)N[C@@H](CC(=O)O)C(=O)N[C@@H](CC(C)C)C(=O)N[C@@H](CC(N)=O)C(=O)N[C@@H](Cc1ccccc1)C(=O)N[C@@H](C)CCCC(=O)N[C@@H](CCSC)C(=O)N1CCC[C@H]1C(=O)N1CCC[C@H]1C(=O)N[C@@H](C)C(=O)N[C@@H](CC(=O)O)C(=O)N[C@@H](CCC(=O)O)C(=O)N[C@@H](CC(=O)O)C(=O)N[C@@H](Cc1ccc(O)cc1)C(=O)N[C@@H](CO)C(=O)N1CCC[C@H]1C(N)=O` (Ac-MWDFDDLNF[X1]MPPADEDYSP-NH2) yielded a Ki of 10 µM.
